Test results taken from article PMC11566429 (Genes and Environment, 2024).
Entries after “also recorded” stand apart in the source; their conditions may differ. Where two headings read alike, the source gives them in different places.

Tests used:
[1] = test system: TA100, TA1535, TA98, TA1537, and WP2uvrA; assay: Ames test (preincubation method), five standard strains, overall judgement; conditions: for Ames test result (in words, text): presence and absence of S9 mix; for Ames test: presence and absence of rat liver S9 mix
Method: The S9 mix (0.5 mL) consisted of 0.05 mL of the S9 fraction and 0.45 mL of a cofactor solution (Cofactor-1®; Oriental Yeast Co., Ltd.), and contained 8 mM MgCl2, 33 mM KCl, 5 mM glucose-6-phosphate, 4 mM NADPH, 4 mM NADH and 100 mM sodium phosphate (pH 7.4).
Four strains of Salmonella typhimurium, TA100, TA1535, TA98, and TA1537 and one strain of Escherichia coli, WP2uvrA were used.
Ames test was conducted using the preincubation method. […] For the tests carried out in the absence of S9 mix, 0.1 mL of the negative control (vehicle), test chemical solution at various concentrations, or positive control solution was added to a test tube, to which 0.5 mL of 100 mM sodium phosphate buffer (pH 7.4) and 0.1 mL of bacterial culture were added. For the tests carried out in the presence of the S9 mix, the S9 mix was added instead of the phosphate buffer. After mixing, the test tubes were preincubated at 37 °C for 20 min in a shaking water bath. After completion, the treatment mixture was immediately added and mixed with 2 mL of 0.05 mM L-histidine/0.05 mM biotin/0.05 mM L-tryptophan molten top agar and the content was poured onto a plate of minimal-glucose agar medium (Tesmedia®, Oriental Yeast). The plates were incubated at 37 °C for approximately 48 h and the revertant colonies that appeared were counted. The sign of the bacterial background lawn was examined as an indicator of cytotoxicity. In addition, the presence or absence of precipitates from the test chemicals was evaluated.
Multiple tests (dose-finding, main, or confirmatory tests) were conducted. The dose-finding test for almost all the test chemicals was conducted with TA100 in the presence and absence of the S9 mix in a single plate per dose. The main test was conducted in duplicate with the five strains in the presence and absence of the S9 mix. […] Dimethyl sulfoxide (DMSO) was used as a negative control (vehicle).
Mutagenicity was evaluated according to the so-called “two-fold” rule for TA100, TA98, and WP2uvrA, or “three-fold” rule for TA1535 and TA1537 [19]. […] Historical negative control counts were also considered during the evaluation.

TA100 = assay: Ames test, mutagenic activity in TA100; type: cell-based, Salmonella typhimurium; conditions: maximum mutagenic activity
Source text: (§1) The maximum mutagenic activity (rev/mg) was used as an indicator of the magnitude of mutagenicity among those calculated according to the following equation from each representative experiment (main test or confirmatory test) for chemicals that were judged positive: Mutagenic activity (rev/mg) = (number of revertant colonies at each dose—number of revertant colonies for the negative control) / dose (mg).

TA98 = assay: Ames test, mutagenic activity in TA98; type: cell-based, Salmonella typhimurium; conditions: maximum mutagenic activity
Source text: as §1

TA100, TA98 = conditions: cited from earlier work
[2] = test system: TA100, TA1535, TA98, TA1537, TA97; conditions: TA100, TA1535, TA98, TA1537, TA97 (± S9) ref 16; cited from earlier work
TA1537 = type: cell-based, Salmonella typhimurium; conditions: TA1537 -S9, maximum mutagenic activity
Source text: as §1

WP2uvrA = assay: Ames test, mutagenic activity in WP2uvrA; type: cell-based, Escherichia coli; conditions: maximum mutagenic activity
Source text: as §1

[3] = test system: TA100, TA1535, TA98, TA1537, WP2uvrA; conditions: TA100, TA1535, TA98, TA1537, WP2uvrA (± S9) ref 9; cited from earlier work
TA100, TA98, TA102 = TA100, TA98, TA102 (± S9) ref 7; cited from earlier work
[4] = test system: TA100, TA1535, TA98, TA1537, TA1538; conditions: presence or absence of S9 mix not clearly indicated ref 7; cited from earlier work

c1cnc2cccnc2c1 [1,5-Naphthyridine]
Ames test result (in words, text) [1]: only mutagenic in TA100; also recorded: mutagenic only in the presence of the S9 mix | Ames test ([1]; quinoline analogues): ++ ("mutagenic (100-1000 rev/mg)" in Ames test) | Tester strains showing positive (mutagenic activity in rev/mg) (TA100; TA100 +S9): TA100 +S9 (419) rev/mg | Tester strains showing positive (mutagenic activity in rev/mg) (TA100; TA100 +S9, listed as 1,5-naphthyridine): 419 rev/mg

c1cnc2ccncc2c1 [1,6-Naphthyridine]
Ames test result (in words, text) [1]: not mutagenic

c1cnc2cnccc2c1 [1,7-Naphthyridine]
Ames test result (in words, text) [1]: mutagenic in both TA100 and TA98 | Ames test result (in words, text) ([1]; listed as 1,7-naphthyridine): mutagenic both in the presence and absence of the S9 mix | Ames test ([1]; quinoline analogues): ++ ("mutagenic (100-1000 rev/mg)" in Ames test) | Tester strains showing positive (mutagenic activity in rev/mg) (TA100; TA100 +S9): 255 rev/mg | Tester strains showing positive (mutagenic activity in rev/mg) (TA100; TA100 -S9): 40 rev/mg | Tester strains showing positive (mutagenic activity in rev/mg) (TA98; TA98 +S9): 24 rev/mg | Tester strains showing positive (mutagenic activity in rev/mg) (TA98; TA98 -S9): 12 rev/mg

c1cnc2ncccc2c1 [1,8-Naphthyridine]
Ames test result (in words, text) [1]: only mutagenic in TA100; also recorded: mutagenic only in the presence of the S9 mix | Ames test ([1]; quinoline analogues): ++ ("mutagenic (100-1000 rev/mg)" in Ames test) | Tester strains showing positive (mutagenic activity in rev/mg) (TA100; TA100 +S9): TA100 +S9 (170) rev/mg | Tester strains showing positive (mutagenic activity in rev/mg) (TA100; TA100 +S9, listed as 1,8-naphthyridine): 170 rev/mg

c1cc2cnccc2cn1 [2,6-Naphthyridine]
Ames test result (in words, text) [1]: non-mutagenic

c1cc2ccncc2cn1 [2,7-Naphthyridine]
Ames test result (in words, text) [1]: non-mutagenic

c1cnc2cc[nH]c2c1 [4-Azaindole, 1H-Pyrrolo[3,2-b]pyridine]
Ames test ([1]; indole analogues): + ("mutagenic (< 100 revertants/mg)" in Ames test) | Ames test result (in words, text) [1]: mutagenic in the absence of S9 mix with TA1537

c1ncc2[nH]ccc2n1 [5H-Pyrrolo[3,2-d]pyrimidine]
Ames test result (in words, text) [1]: non-mutagenic

c1ccc2[nH]cnc2c1 [Benzimidazole]
Ames test result (in words, text) [1]: not mutagenic | Ames test result (TA100, TA98; TA100, TA98 (-S9) ref 14): Non-mutagenic | Ames test result [2]: Non-mutagenic

c1ccc2nnccc2c1 [Cinnoline]
Ames test result (in words, text) [1]: mutagenic in TA1537; also recorded: mutagenic only in the absence of the S9 mix | Ames test result (in words, text) ([1]; listed as cinnoline): mutagenic in the absence of S9 mix with TA1537 | Ames test ([1]; quinoline analogues): + ("mutagenic (< 100 revertants/mg)" in Ames test) | Tester strains showing positive (mutagenic activity in rev/mg) (TA1537): TA1537 -S9 (13) rev/mg | Tester strains showing positive (mutagenic activity in rev/mg) (TA1537; listed as cinnoline): 13 rev/mg

c1ccc2[nH]ncc2c1 [Indazole]
Ames test ([1]; indole analogues): + ("mutagenic (< 100 revertants/mg)" in Ames test) | Ames test result (in words, text) [1]: mutagenic in the presence and absence of S9 mix with WP2uvrA | Tester strains showing positive (mutagenic activity in rev/mg) (WP2uvrA; WP2uvrA +S9): 38 rev/mg | Tester strains showing positive (mutagenic activity in rev/mg) (WP2uvrA; WP2uvrA -S9): 40 rev/mg | Ames test result (TA100, TA98; TA100, TA98 (-S9) ref 14): Non-mutagenic

c1ccc2cnccc2c1 [Isoquinoline]
Ames test result (in words, text) [1]: non-mutagenic | Ames test result (TA100, TA98; TA100, TA98 (± S9) ref 10): Non-mutagenic

c1ccc2cnncc2c1 [Phthalazine]
Ames test result (in words, text) [1]: non-mutagenic | Ames test result (TA100, TA98; TA100, TA98 (± S9) ref 11): Non-mutagenic

c1cnc2[nH]ncc2c1 [Pyrazolo[3,4-b]pyridine]
Ames test result (in words, text) [1]: non-mutagenic

c1ccc2ncncc2c1 [Quinazoline]
Ames test result (in words, text) [1]: non-mutagenic

c1ccc2ncccc2c1 [Quinoline]
Ames test result (in words, text) [1]: only mutagenic in TA100; also recorded: mutagenic only in the presence of the S9 mix | Ames test ([1]; quinoline analogues): +++ ("mutagenic (>1000 revertants/mg)" in Ames test) | Ames test result [3]: Mutagenic (+ S9) in TA100, TA98, WP2uvrA

c1ccc2nccnc2c1 [Quinoxaline]
Ames test result (in words, text) [1]: non-mutagenic | Ames test result (TA100, TA98, TA102): Mutagenic (+ S9) in TA98 | Ames test result [4]: Non-mutagenic
